Patent US20250195513A1, “DEGRADATION OF IRAK4 BY CONJUGATION OF IRAK4 INHIBITORS WITH E3 LIGASE LIGAND AND METHODS OF USE” (BeiGene, Ltd., priority 2022, published 2025)

Key:
IRAK4 [1] = target: T1, IRAK4 (Homo sapiens, UniProt Q9NWZ3); assay: IRAK4 Degradation Assay with Human Serum (Karpas299, HTRF/TR-FRET); type: cell-based; conditions: Karpas-299 in human serum, 24 hrs treatment; for DC50: read-out: IRAK4 degradtion with human serum assay DC50; for Dmax: read-out: IRAK4 degradtion with human serum assay Dmax (%)
T1 construct: endogenous in cells; host or cells: Karpas299
T1 sequence (Q9NWZ3 1-460): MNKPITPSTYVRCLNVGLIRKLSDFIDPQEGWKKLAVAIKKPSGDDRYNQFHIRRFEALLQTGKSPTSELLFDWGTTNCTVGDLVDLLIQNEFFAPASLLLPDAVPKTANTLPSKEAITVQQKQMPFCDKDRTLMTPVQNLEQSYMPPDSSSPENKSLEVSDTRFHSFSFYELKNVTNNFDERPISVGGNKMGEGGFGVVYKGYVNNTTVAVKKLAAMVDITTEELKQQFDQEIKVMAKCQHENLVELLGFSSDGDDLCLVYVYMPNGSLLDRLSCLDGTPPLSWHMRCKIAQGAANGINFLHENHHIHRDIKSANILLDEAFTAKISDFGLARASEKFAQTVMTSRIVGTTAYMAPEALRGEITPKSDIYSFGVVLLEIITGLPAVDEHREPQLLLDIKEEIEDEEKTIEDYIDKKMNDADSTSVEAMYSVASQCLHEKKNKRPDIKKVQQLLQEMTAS
Procedure, shortened: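 Karpas299 cells in human AB serum (0.2 million/well) treated with serial compound dilutions for 24 h. After lysis, IRAK4 quantified by HTRF (overnight antibody incubation at room temperature, 665/620 nm read). Degradation percentage fitted to four-parameter curve to give DC50.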

IRAK4 [2] = target: T1, IRAK4; assay: IRAK4 Degradation Assay (Karpas299, HTRF/TR-FRET); type: cell-based; conditions: Karpas-299 cells, 24 h treatment; for Dmax: maximum percentage of degradation, read-out: IRAK4 in Karpas-299 (24 h) Dmax (%); for DC50: read-out: IRAK4 in Karpas-299 (24 h) DC50
Procedure, shortened: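 Karpas299 cells at 0.2 million per well were exposed to serially diluted compounds for 24 h or 5 h, then lysed. IRAK4 remaining in lysates was quantified by HTRF (665/620 nm) after overnight antibody incubation at room temperature. Percent degradation was fitted to a four-parameter curve to give IC50 (DC50).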

SMILES | DC50 (IRAK4 [1]) | Dmax (IRAK4 [1]) | Dmax (IRAK4 [2]) | DC50 (IRAK4 [2])
CC(C)(O)c1cc2nn([C@H]3CC[C@H](N4CCN(C[C@H]5C[C@H](c6cc(F)c([C@H]7CCC(=O)NC7=O)c(F)c6)C5)CC4)CC3)cc2cc1NC(=O)c1ccc2cc(C#N)cnn12 [Example 382, 3-cyano-N-(2-((1R,4r)-4-(4-(((1R,3R)-3-(4-((R)-2,6-dioxopiperidin-3-yl)-3,5-difluorophenyl)cyclobutyl)methyl)piperazin-1-yl)cyclohexyl)-6-(2-hydroxypropan-2-yl)-2H-indazol-5-yl)pyrrolo[1,2-b]pyridazine-7-carboxamide] | 11 nM | 96% | 98% | 0.4 nM
COC[C@H]1CN(C2CCN(c3cc(F)c([C@H]4CCC(=O)NC4=O)c(F)c3)CC2)CCN1[C@H]1CC[C@H](n2cc3cc(NC(=O)c4ccc5cc(C#N)cnn45)c(C(C)(C)O)cc3n2)CC1 [Example 324, 3-cyano-N-(2-((1R,4r)-4-((R)-4-(1-(4-((R)-2,6-dioxopiperidin-3-yl)-3,5-difluorophenyl)piperidin-4-yl)-2-(methoxymethyl)piperazin-1-yl)cyclohexyl)-6-(2-hydroxypropan-2-yl)-2H-indazol-5-yl)pyrrolo[1,2-b]pyridazine-7-carboxamide] | 23 nM | 99% | 95% | 1 nM
COC[C@H]1CN(C2CCN(c3ccc(C4CCC(=O)NC4=O)nc3C)CC2)CCN1[C@H]1CC[C@H](n2cc3cc(NC(=O)c4ccc5cc(C#N)cnn45)c(C(C)(C)O)cc3n2)CC1 (stereo partly drawn) [Example 415, 3-cyano-N-(2-((1R,4r)-4-((2R)-4-(1-(6-(2,6-dioxopiperidin-3-yl)-2-methylpyridin-3-yl)piperidin-4-yl)-2-(methoxymethyl)piperazin-1-yl)cyclohexyl)-6-(2-hydroxypropan-2-yl)-2H-indazol-5-yl)pyrrolo[1,2-b]pyridazine-7-carboxamide] | 8.6 nM | 98% | 97% | 1.4 nM
CC(C)(O)c1cc2nn([C@H]3CC[C@H](N4CCN([C@@H]5CCN(c6cc(F)c(C7CCC(=O)NC7=O)c(F)c6)C5)CC4)CC3)cc2cc1NC(=O)c1ccc2cc(C#N)cnn12 (stereo partly drawn) [Example 396, 3-cyano-N-(2-((1R,4r)-4-(4-((3R)-1-(4-(2,6-dioxopiperidin-3-yl)-3,5-difluorophenyl)pyrrolidin-3-yl)piperazin-1-yl)cyclohexyl)-6-(2-hydroxypropan-2-yl)-2H-indazol-5-yl)pyrrolo[1,2-b]pyridazine-7-carboxamide] | 34 nM | 95% | 98% | 0.8 nM
CC(C)(O)c1cc2nn(C34CC(N5CCN(CCc6cc(F)c([C@H]7CCC(=O)NC7=O)c(F)c6)CC5)(C3)C4)cc2cc1NC(=O)c1ccc2cc(C#N)cnn12 [Example 159, (R)-3-cyano-N-(2-(3-(4-(4-(2,6-dioxopiperidin-3-yl)-3,5-difluorophenethyl)piperazin-1-yl)bicyclo[1.1.1]pentan-1-yl)-6-(2-hydroxypropan-2-yl)-2H-indazol-5-yl)pyrrolo[1,2-b]pyridazine-7-carboxamide] | 5.2 nM | 94% | 95% | 1.5 nM
CC(C)(O)c1cc2nn(C3CCN([C@@H]4CCN(CCc5cc(F)c([C@H]6CCC(=O)NC6=O)c(F)c5)CC4(F)F)CC3)cc2cc1NC(=O)c1ccc2cc(C#N)cnn12 [Example 340, 3-cyano-N-(2-((R)-1′-(4-((R)-2,6-dioxopiperidin-3-yl)-3,5-difluorophenethyl)-3′,3′-difluoro-[1,4′-bipiperidin]-4-yl)-6-(2-hydroxypropan-2-yl)-2H-indazol-5-yl)pyrrolo[1,2-b]pyridazine-7-carboxamide] | 16 nM | 97% | 98% | 3.4 nM
